In PubChem BioAssay (NCI):
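Method: 48-hour compound exposure of cells in 96-well plates, five concentrations, linear interpolation of endpoints. GI50 marks 50% less growth. TGI: concentration producing complete growth inhibition.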

Assays:
Experiment in all cases: NCI tumour cell line growth inhibition, 48 h
NCI-H522 lung = test system: NCI-H522 lung
K-562 leukemia = test system: K-562 leukemia
OVCAR-3 ovarian = test system: OVCAR-3 ovarian
UACC-257 melanoma = test system: UACC-257 melanoma
HOP-92 NSCLC = test system: HOP-92 NSCLC
COLO 205 colon = test system: COLO 205 colon
PC-3 prostate = test system: PC-3 prostate
HCT-15 colon = test system: HCT-15 colon
NCI-H226 lung = test system: NCI-H226 lung
CAKI-1 renal = test system: CAKI-1 renal
OVCAR-8 ovarian = test system: OVCAR-8 ovarian
HOP-62 NSCLC = test system: HOP-62 NSCLC
SR leukemia = test system: SR leukemia
DU-145 prostate = test system: DU-145 prostate
MOLT-4 leukemia = test system: MOLT-4 leukemia
EKVX NSCLC = test system: EKVX NSCLC
HS 578T breast = test system: HS 578T breast
HT29 colon = test system: HT29 colon
TK-10 renal = test system: TK-10 renal
SW-620 colon = test system: SW-620 colon
SNB-19 CNS = test system: SNB-19 CNS
A549 NSCLC = test system: A549 NSCLC
MALME-3M melanoma = test system: MALME-3M melanoma
M14 melanoma = test system: M14 melanoma
SK-MEL-2 melanoma = test system: SK-MEL-2 melanoma
SK-MEL-5 melanoma = test system: SK-MEL-5 melanoma
HCT-116 colon = test system: HCT-116 colon
MCF7 breast = test system: MCF7 breast
MDA-MB-435 = test system: MDA-MB-435
U251 CNS = test system: U251 CNS
UO-31 renal = test system: UO-31 renal
HL-60(TB) leukemia = test system: HL-60(TB) leukemia
RXF 393 renal = test system: RXF 393 renal
SF-539 CNS = test system: SF-539 CNS
A498 renal = test system: A498 renal
SF-268 CNS = test system: SF-268 CNS
T-47D breast = test system: T-47D breast
SF-295 CNS = test system: SF-295 CNS
SK-OV-3 ovarian = test system: SK-OV-3 ovarian
NCI-H23 lung = test system: NCI-H23 lung
OVCAR-4 ovarian = test system: OVCAR-4 ovarian
SN12C renal = test system: SN12C renal
LOX IMVI melanoma = test system: LOX IMVI melanoma
OVCAR-5 ovarian = test system: OVCAR-5 ovarian
IGROV1 ovarian = test system: IGROV1 ovarian
CCRF-CEM leukemia = test system: CCRF-CEM leukemia
BT-549 breast = test system: BT-549 breast
ACHN renal = test system: ACHN renal
NCI-H460 lung = test system: NCI-H460 lung
KM12 colon = test system: KM12 colon
SNB-75 CNS = test system: SNB-75 CNS
MDA-MB-231 breast = test system: MDA-MB-231 breast
NCI/ADR-RES ovarian = test system: NCI/ADR-RES ovarian
786-0 renal = test system: 786-0 renal
SK-MEL-28 melanoma = test system: SK-MEL-28 melanoma
UACC-62 melanoma = test system: UACC-62 melanoma
HCC-2998 colon = test system: HCC-2998 colon
RPMI-8226 leukemia = test system: RPMI-8226 leukemia

`CC/C=C\C/C=C\C[C@H](O)C/C=C1/C(=O)C=C[C@@H]1C/C=C\CCCC(=O)O` was tested, and the GI50 (NCI-H522 lung) was 1.71 µM, the TGI (NCI-H522 lung) was 3.78 µM and the GI50 (K-562 leukemia) was 3.17 µM. The TGI (K-562 leukemia) was greater than 100 µM, the GI50 (OVCAR-3 ovarian) was 3.23 µM and the TGI (OVCAR-3 ovarian) was 12.7 µM. For the same compound, the GI50 (UACC-257 melanoma) was 5.35 µM, the TGI (UACC-257 melanoma) was 19.2 µM and the GI50 (HOP-92 NSCLC) was 7.26 µM. For the same compound, the TGI (HOP-92 NSCLC) was 20.4 µM, the GI50 (COLO 205 colon) was 3.78 µM and the TGI (COLO 205 colon) was 10.9 µM. It also gave a GI50 (PC-3 prostate) of 6.03 µM, a TGI (PC-3 prostate) of 21.5 µM and a GI50 (HCT-15 colon) of 3.47 µM. It also gave a TGI (HCT-15 colon) of 15.6 µM, a GI50 (NCI-H226 lung) of 2.57 µM and a TGI (NCI-H226 lung) of 5.86 µM. The GI50 (CAKI-1 renal) was 6.56 µM, the TGI (CAKI-1 renal) was 21.4 µM and the GI50 (OVCAR-8 ovarian) was 3.56 µM. The TGI (OVCAR-8 ovarian) was 13.9 µM, the GI50 (HOP-62 NSCLC) was 2.77 µM and the TGI (HOP-62 NSCLC) was 7.4 µM. The GI50 (SR leukemia) was 2.46 µM, the TGI (SR leukemia) was 16.7 µM and the GI50 (DU-145 prostate) was 5.17 µM. The TGI (DU-145 prostate) was 19 µM, the GI50 (MOLT-4 leukemia) was 2.83 µM and the TGI (MOLT-4 leukemia) was 11.8 µM. For the same compound, the GI50 (EKVX NSCLC) was 14.5 µM, the TGI (EKVX NSCLC) was 30.5 µM and the GI50 (HS 578T breast) was 28.4 µM. It also gave a TGI (HS 578T breast) greater than 100 µM, a GI50 (HT29 colon) of 3.78 µM and a TGI (HT29 colon) of 11.4 µM. For the same compound, the GI50 (TK-10 renal) was 8.06 µM, the TGI (TK-10 renal) was 21.1 µM and the GI50 (SW-620 colon) was 4.46 µM. It also gave a TGI (SW-620 colon) of 70.6 µM, a GI50 (SNB-19 CNS) of 8.75 µM and a TGI (SNB-19 CNS) of 24.3 µM. The GI50 (A549 NSCLC) was 13.6 µM, the TGI (A549 NSCLC) was 56.6 µM and the GI50 (MALME-3M melanoma) was 3.46 µM. For the same compound, the TGI (MALME-3M melanoma) was 15.6 µM, the GI50 (M14 melanoma) was 2.82 µM and the TGI (M14 melanoma) was 12 µM. For the same compound, the GI50 (SK-MEL-2 melanoma) was 3.33 µM, the TGI (SK-MEL-2 melanoma) was 13.2 µM and the GI50 (SK-MEL-5 melanoma) was 2.42 µM. For the same compound, the TGI (SK-MEL-5 melanoma) was 5.98 µM, the GI50 (HCT-116 colon) was 2.08 µM and the TGI (HCT-116 colon) was 4.5 µM. For the same compound, the GI50 (MCF7 breast) was 2.96 µM, the TGI (MCF7 breast) was 18.5 µM and the GI50 (MDA-MB-435) was 3.1 µM. It also gave a TGI (MDA-MB-435) of 12 µM, a GI50 (U251 CNS) of 3.54 µM and a TGI (U251 CNS) of 12.2 µM. It also gave a GI50 (UO-31 renal) of 5.99 µM, a TGI (UO-31 renal) of 20.3 µM and a GI50 (HL-60(TB) leukemia) of 2.93 µM. The TGI (HL-60(TB) leukemia) was 10.1 µM, the GI50 (RXF 393 renal) was 2.94 µM and the TGI (RXF 393 renal) was 8.71 µM. The GI50 (SF-539 CNS) was 3.85 µM, the TGI (SF-539 CNS) was 15.2 µM and the GI50 (A498 renal) was 16 µM. It also gave a TGI (A498 renal) of 31.1 µM, a GI50 (SF-268 CNS) of 5.2 µM and a TGI (SF-268 CNS) of 34 µM. For the same compound, the GI50 (T-47D breast) was 3.88 µM, the TGI (T-47D breast) was 20.1 µM and the GI50 (SF-295 CNS) was 7.86 µM. It also gave a TGI (SF-295 CNS) of 22.4 µM, a GI50 (SK-OV-3 ovarian) of 16 µM and a TGI (SK-OV-3 ovarian) of 34.7 µM. For the same compound, the GI50 (NCI-H23 lung) was 4.09 µM, the TGI (NCI-H23 lung) was 17.1 µM and the GI50 (OVCAR-4 ovarian) was 4.15 µM. For the same compound, the TGI (OVCAR-4 ovarian) was 20 µM, the GI50 (SN12C renal) was 3.6 µM and the TGI (SN12C renal) was 43.1 µM. The GI50 (LOX IMVI melanoma) was 1.74 µM, the TGI (LOX IMVI melanoma) was 3.74 µM and the GI50 (OVCAR-5 ovarian) was 7.22 µM. It also gave a TGI (OVCAR-5 ovarian) of 30 µM, a GI50 (IGROV1 ovarian) of 6.78 µM and a TGI (IGROV1 ovarian) of 25.9 µM. It also gave a GI50 (CCRF-CEM leukemia) of 2.17 µM, a TGI (CCRF-CEM leukemia) of 14 µM and a GI50 (BT-549 breast) of 2.96 µM. The TGI (BT-549 breast) was 9.1 µM, the GI50 (ACHN renal) was 4.84 µM and the TGI (ACHN renal) was 18.5 µM. It also gave a GI50 (NCI-H460 lung) of 3.84 µM, a TGI (NCI-H460 lung) greater than 100 µM and a GI50 (KM12 colon) of 3.06 µM. The TGI (KM12 colon) was 11.5 µM, the GI50 (SNB-75 CNS) was 10.4 µM and the TGI (SNB-75 CNS) was 28.6 µM. It also gave a GI50 (MDA-MB-231 breast) of 7.94 µM, a TGI (MDA-MB-231 breast) of 44.4 µM and a GI50 (NCI/ADR-RES ovarian) of 3.24 µM. For the same compound, the TGI (NCI/ADR-RES ovarian) was greater than 100 µM, the GI50 (786-0 renal) was 2.47 µM and the TGI (786-0 renal) was 5.83 µM. The GI50 (SK-MEL-28 melanoma) was 3.83 µM, the TGI (SK-MEL-28 melanoma) was 13.3 µM and the GI50 (UACC-62 melanoma) was 1.94 µM. It also gave a TGI (UACC-62 melanoma) of 8.02 µM, a GI50 (HCC-2998 colon) of 2.21 µM and a TGI (HCC-2998 colon) of 4.28 µM. The GI50 (RPMI-8226 leukemia) was 2.63 µM and the TGI (RPMI-8226 leukemia) was 12.1 µM.
